Where two headings read alike, the source gives them in different places.
Key:
[1] = test system: plants comprising the MON 88701 event
Experimental: In year 2, efficacy testing was conducted with twelve events compared to non-transgenic, wild-type Coker 130. For this testing, paired plots were either sprayed or not sprayed. The plots were maintained weed-and insect-free using conventional control programs for the duration of the trial. For the plots that were sprayed, the following treatment applications were conducted (1) 0.5 lb/A dicamba applied PRE, Early POST, Mid POST and Late POST; (2) 1 lb/A dicamba applied PRE, Early POST, Mid POST and Late POST; (3) 2 lb/A dicamba applied PRE, Early POST, Mid POST and Late POST; (4) 0.5 lb/A glufosinate applied Early POST, Mid POST and Late POST: (5) 1 lb/A glufosinate applied Early POST, Mid POST and Late POST: 6) 2 lb/A glufosinate applied Early POST, Mid POST and Late POST; and 7) Control (unsprayed). Preemergence (PRE) is defined as immediately after cotton planting (within 24 hours); Early POST as 2-node cotton; Mid POST as 8-node cotton; and Late POST as 14 node cotton. For these efficacy field trials, there were three plots composed entirely of wild-type cotton (Coker 130). At each post-emergence timing (Early, Mid, Late), one-half of a plot was sprayed with the 1× rate (0.5 lb/A) of dicamba and one-half of the same plot was sprayed with the 1× rate (0.5 lb/A) of glufosinate. Each of the three plots received dicamba and glufosinate spray at one of the post-emergence timing spray applications (Early, Mid, Late).
XR TeeJet® extended range flat spray tips with an 80-degree spray angle were used (TeeJet Technologies, Wheaton, IL). There were 2 nozzles per row (nozzles spaced at 15″ for 30″ rows, 19″ for 38″ rows and 20″ for 40″ rows). Nozzle size depended on sprayer speed and nozzle spacing; however, nozzle size was selected to result in a spray pressure of 25 to 35 PSI. Boom height was adjusted to allow for 50% spray overlap (which occurs at roughly 30″ above the top of the crop).
At each rating time, the following observations were recorded: 1) percent necrosis or burn on the most affected leaves; 2) percent necrosis or burn on a whole-plant basis; 3) epinasty; and 4) any other relevant injury that was observed. Ratings were taken four days after each application and immediately prior to subsequent applications. […] Plots were harvested and recorded as lbs/plot of seedcotton and expressed as lb/acre of seedcotton.

[2] = test system: transgenic cotton events (eight events)
Experimental: (§1) In year 1, efficacy testing was conducted with eight events compared to non-transgenic, wild-type Coker 130. For this testing, paired plots were sprayed with dicamba (Clarity®, BASF, Research Triangle Park, NC) and glufosinate (Ignite®, Bayer CropScience, Research Triangle Park, NC) or left unsprayed. The plots were maintained weed-and insect-free using conventional control programs for the duration of the trial. […] For plots that were sprayed, the following applications were conducted: dicamba was applied preemergence at 1 lb/A followed by glufosinate applied 1.09lb/A at the 2 node stage, followed by dicamba applied at 1 lb/A at the 5 node stage, followed by glufosinate applied 1.09 lb/A at the 8 node stage, followed by dicamba applied at 1 lb/A at the 12 node stage. Neither dicamba nor glufosinate were applied with surfactants, fertilizer additive, or other adjuvant. […] Plots were harvested and yield recorded as lbs/plot of seed cotton and expressed as lb/acre of seed cotton. […]

[3] = test system: non-transgenic, wild-type Coker 130; test: Year 1 efficacy field trial, wild-type control; format: in vivo, Gossypium hirsutum; conditions: sequential regimen: dicamba 1 lb/A preemergence, 5 node, 12 node; glufosinate 1.09 lb/A at 2 node and 8 node; FIG. 7
Experimental: as §1

[4] = test system: wild-type cotton (Coker 130); test: Year 2 efficacy field trial, wild-type plots; format: in vivo, Gossypium hirsutum; conditions: 1× rate (0.5 lb/A), half plot each herbicide, at one post-emergence timing (Early, Mid, Late)
Experimental: In year 2, efficacy testing was conducted with twelve events compared to non-transgenic, wild-type Coker 130. For this testing, paired plots were either sprayed or not sprayed. The plots were maintained weed-and insect-free using conventional control programs for the duration of the trial. For the plots that were sprayed, the following treatment applications were conducted (1) 0.5 lb/A dicamba applied PRE, Early POST, Mid POST and Late POST; (2) 1 lb/A dicamba applied PRE, Early POST, Mid POST and Late POST; (3) 2 lb/A dicamba applied PRE, Early POST, Mid POST and Late POST; (4) 0.5 lb/A glufosinate applied Early POST, Mid POST and Late POST: (5) 1 lb/A glufosinate applied Early POST, Mid POST and Late POST: 6) 2 lb/A glufosinate applied Early POST, Mid POST and Late POST; and 7) Control (unsprayed). Preemergence (PRE) is defined as immediately after cotton planting (within 24 hours); Early POST as 2-node cotton; Mid POST as 8-node cotton; and Late POST as 14 node cotton. […]
At each rating time, the following observations were recorded: 1) percent necrosis or burn on the most affected leaves; 2) percent necrosis or burn on a whole-plant basis; 3) epinasty; and 4) any other relevant injury that was observed. […] Plots were harvested and recorded as lbs/plot of seedcotton and expressed as lb/acre of seedcotton.

[5] = test system: plants comprising the MON 88701 event; format: in vivo, Gossypium hirsutum
Experimental: In year 3, efficacy field testing of event MON 88701 was conducted to study the rate and timing of application of dicamba and/or glufosinate. […] The treatment and application timing are detailed in Table 2. […] The sprayer protocol was as described for year 2 efficacy field testing. Stand rating, visual injury rating (percent epinasty, percent necrosis), plant height and node number, 50-boll sampling, and yield determinations were as described for agronomic and efficacy field testing above.

| Molecule | injury rating with increasing application rates of dicamba ([1]; in vivo) | yield of seedcotton with increasing application rates of dicamba ([1]; in vivo) | yield of seed cotton, paired sprayed and unsprayed events compared to unsprayed wild-type Coker 130 ([2]; in vivo) | survival of the spray regimen [3] | survival of herbicide spray [4] | yield of seedcotton ([5]; in vivo) | injury rating with increasing application rates of glufosinate ([1]; 0.5, 1, 2 lb/A glufosinate Early, Mid, Late POST, FIG. 5.B) | yield of seedcotton with increasing application rates of glufosinate ([1]; 0.5, 1, 2 lb/A glufosinate applied Early POST, Mid POST and Late POST, FIG. 4.B) | yield of seed cotton, paired sprayed and unsprayed events compared to unsprayed wild-type Coker 130 ([2]; sequential regimen: dicamba 1 lb/A preemergence, 5 node, 12 node, glufosinate 1.09 lb/A at 2 node and 8 node, FIG. 3) | yield of seedcotton ([5]; all other treatment regimens of Table 2 (0.25-1 lb ai/A, four timings), FIG. 6) |
| --- | --- | --- | --- | --- | --- | --- | --- | --- | --- | --- |
| COc1c(Cl)ccc(Cl)c1C(=O)O [dicamba, 3,6-dichloro-2-methoxybenzoic acid] | increased percentage of injury | nearly equivalent | no significant difference | did not survive | did not survive | no yield loss | – | – | – | – |
| 2-amino-4-(hydroxymethylphosphinyl)butanoic acid [glufosinate] | – | – | – | did not survive | did not survive | – | increased percentage of injury | nearly equivalent | no significant difference | no yield loss |
